Reference: ChEMBL document CHEMBL4602636, “Synthesis and in vitro antitumor evaluation of honokiol derivatives” (Bioorg Med Chem Lett, 2020)
pIC50: −log10 of the molar value. Active and inactive are the calls of the source. No cut-off for these calls is given here.

Key:
[1] = tested on: I10; test: Antiproliferative activity against mouse I10 cells assessed as growth inhibition after 72 hrs by MTT assay; format: functional, cell-based; settings: I10, 72 h
[2] = tested on: MCF7; test: Antiproliferative activity against human MCF7 cells assessed as growth inhibition after 72 hrs by MTT assay; format: functional, cell-based; settings: MCF7, 72 h
[3] = tested on: CNE2Z; test: Antiproliferative activity against human CNE2Z cells assessed as growth inhibition after 72 hrs by MTT assay; format: functional, cell-based
[4] = tested on: I10; test: Antiproliferative activity against mouse I10 cells at 20 uM after 24 to 72 hrs by MTT assay relative to control; format: functional
[5] = tested on: I10; test: Downregulation of MMP-9 expression in mouse I10 cells at 20 uM after 24 hrs Western blot analysis; format: functional, cell-based
[6] = tested on: I10; test: Downregulation of HIF1alpha expression in mouse I10 cells at 20 uM after 24 hrs Western blot analysis; format: functional, cell-based
[7] = tested on: I10; test: Inhibition of cell migration in mouse I10 cells after 24 hrs under hypoxia condition by scratch wound healing assay; format: functional, cell-based
[8] = tested on: I10; test: Downregulation of MMP-2 expression in mouse I10 cells at 20 uM after 24 hrs Western blot analysis; format: functional, cell-based
[9] = tested on: I10; test: Antiproliferative activity against mouse I10 cells at 2.5 to 20 uM by MTT assay; format: functional, cell-based; settings: TDE = time-dependent effect
[10] = tested on: I10; test: Antiinvasive activity against mouse I10 cells assessed as reduction in number of invaded cells at 2.5 uM after 36 hrs under hypoxia condition by crystal violet staining based transwell assay; format: functional, cell-based
[11] = tested on: I10; test: Antiproliferative activity against mouse I10 cells after 24 to 72 hrs by MTT assay; format: functional, cell-based
[12] = tested on: I10; test: Inhibition of cell migration in mouse I10 cells at 10 uM after 24 hrs under hypoxia condition by scratch wound healing assay; format: functional, cell-based
[13] = tested on: I10; test: Antiinvasive activity against mouse I10 cells incubated for 36 hrs under hypoxia condition by crystal violet staining based transwell assay; format: functional, cell-based

SMILES | pIC50 [2] | pIC50 [1] | pIC50 [3] | further results
C=CCc1ccc(O)c(-c2ccc(O)c(CC=C)c2)c1 [HONOKIOL] | 4.38 | 4.51 | 4.50 | 
C=CCc1ccc(OC)c(-c2ccc(O)c(CC=C)c2)c1 | 4.43 | 4.42 | 4.52 | 
C=CCc1ccc(O)c(-c2ccc(OCC)c(CC=C)c2)c1 | 4.58 | 4.67 | 4.62 | 
C=CCc1ccc(OCc2ccc(Cl)cc2Cl)c(-c2ccc(OCc3ccc(Cl)cc3Cl)c(CC=C)c2)c1 | < 4.30 | < 4.30 | < 4.30 | 
C=CCc1ccc(OC)c(-c2ccc(OC)c(CC=C)c2)c1 | < 4.30 | < 4.30 | < 4.30 | 
C=CCc1ccc(OCC)c(-c2ccc(OCC)c(CC=C)c2)c1 | < 4.30 | < 4.30 | < 4.30 | 
C=CCc1ccc(OCc2ccccc2)c(-c2ccc(OCc3ccccc3)c(CC=C)c2)c1 | < 4.30 | < 4.30 | < 4.30 | 
C=CCc1ccc(OCc2ccc(Cl)c(Cl)c2)c(-c2ccc(OCc3ccc(Cl)c(Cl)c3)c(CC=C)c2)c1 | < 4.30 | < 4.30 | < 4.30 | 
C=CCc1ccc(OCC)c(-c2ccc(O)c(CC=C)c2)c1 | 4.70 | 4.61 | 4.69 | 

Second part, led by results:

pIC50 [2] | SMILES | pIC50 [1] | pIC50 [3] | further results
4.61 | C=CCc1ccc(O)c(-c2ccc(OC)c(CC=C)c2)c1 [METHYLHONOKIOL] | 4.58 | 4.59 | 
4.64 | C=CCc1ccc(O)c(-c2ccc(OCc3ccccc3)c(CC=C)c2)c1 | 4.53 | 4.52 | 
4.71 | C=CCc1ccc(OCc2c(Cl)cccc2Cl)c(-c2ccc(O)c(CC=C)c2)c1 | 4.77 | 4.70 | 
4.94 | C=CCc1ccc(O)c(-c2ccc(OCc3c(Cl)cccc3Cl)c(CC=C)c2)c1 | 4.78 | 4.78 | 
4.76 | C=CCc1ccc(OCc2ccc(Cl)c(Cl)c2)c(-c2ccc(O)c(CC=C)c2)c1 | 4.91 | 4.85 | 
4.56 | C=CCc1ccc(OCc2ccc(Cl)cc2Cl)c(-c2ccc(O)c(CC=C)c2)c1 | 4.68 | 4.62 | 
4.65 | C=CCc1ccc(OCc2ccccc2)c(-c2ccc(O)c(CC=C)c2)c1 | 4.66 | 4.62 | 
4.81 | C=CCc1ccc(O)c(-c2ccc(OCc3ccc(Cl)c(Cl)c3)c(CC=C)c2)c1 | 4.91 | 4.75 | 
< 4.30 | C=CCc1ccc(OCc2c(Cl)cccc2Cl)c(-c2ccc(OCc3c(Cl)cccc3Cl)c(CC=C)c2)c1 | < 4.30 | < 4.30 | 
4.83 | C=CCc1ccc(O)c(-c2ccc(OCc3ccc(Cl)cc3Cl)c(CC=C)c2)c1 | 4.98 | 4.95 | Activity [4]: 100%; Activity [5]: Active; Activity [6]: Active; inhibition [7]: Dose-dependent effect; Activity [8]: Active; Activity [9]: Tde; Activity [10]: Active; Activity [11]: Dose-dependent effect; inhibition [12]: Active; Activity [13]: Dose-dependent effect
